Results taken from PMC12020230 (Fluids and Barriers of the CNS, 2025).

Assays:
[1] = tested on: choroid plexus; assay: ^86Rb^+ efflux from excised choroid plexus upon PKA inhibition; type: cell-based, rat; conditions: H89 50 µM vs control, n = 5 of each, P < 0.01
[2] = tested on: patients; conditions: midazolam anaesthesia, ref [48]; cited from earlier work
[3] = tested on: idiopathic intracranial hypertension (IIH) patients; conditions: small clinical trial, ref [27]; cited from earlier work
[4] = ref [58]; cited from earlier work

Compound: O=S(=O)(NCCNC/C=C/c1ccc(Br)cc1)c1cccc2cnccc12 [H89]
- reduction of K^+ efflux across the luminal membrane [1]: 25%

Compound: Cc1ncc2n1-c1ccc(Cl)cc1C(c1ccccc1F)=NC2 [midazolam]
- effect on ICP and perfusion pressure [2]: reported to modulate ICP and perfusion pressure in patients

Compound: Exenatide: GLP-1R agonist Exenatide, which has the same amino acid sequence as Ex4
- ICP reductions [3]: 1–3 mmHg

Compound: semaglutide: another GLP-1 receptor agonist, semaglutide
- risk of NAION [4]: associated with increased risk of non-arteritic anterior ischemic optic neuropathy (NAION)
